The assay deals with ATR kinase (full-length ATR) (Homo sapiens (Human), UniProt Q13535). Briefly: ATR inhibition assay (radioactive-phosphate incorporation). The conditions noted are these: Ki(app), 5 nM full-length ATR, 10 μM ATP, 25° C. The assay is classed as biochemical. How it is done:
Compounds were screened for their ability to inhibit ATR kinase using a radioactive-phosphate incorporation assay. Assays were carried out in a mixture of 50 mM Tris/HCl (pH 7.5), 10 mM MgCl2 and 1 mM DTT. Final substrate concentrations were 10 μM [γ-33P]ATP (3mCi 33P ATP/mmol ATP, Perkin Elmer) and 800 μM target peptide ([…]) (SEQ ID NO:1).
Assays were carried out at 25° C. in the presence of 5 nM full-length ATR. An assay stock buffer solution was prepared containing all of the reagents listed above, with the exception of ATP and the test compound of interest. 13.5 μL of the stock solution was placed in a 96 well plate followed by addition of 2 μL of DMSO stock containing serial dilutions of the test compound (typically starting from a final concentration of 15 μM with 3-fold serial dilutions) in duplicate (final DMSO concentration 7%). The plate was pre-incubated for 10 minutes at 25° C. and the reaction initiated by addition of 15 μL [γ-33P]ATP (final concentration 10 μM).
The reaction was stopped after […] by the addition of 30 μL 0.1M phosphoric acid containing 2 mM ATP. A multiscreen phosphocellulose filter 96-well plate (Millipore, Cat no. MAPHN0B50) was pretreated with 100 μL 0.2M phosphoric acid prior to the addition of […] of the stopped assay mixture. The plate was washed with 5×200 μL 0.2M phosphoric acid. After drying, 100 μL Optiphase ‘SuperMix’ liquid scintillation cocktail (Perkin Elmer) was added to the well prior to scintillation counting (1450 Microbeta Liquid Scintillation Counter, Wallac).
After removing mean background values for all of the data points, Ki(app) data were calculated from non-linear regression analysis of the initial rate data using the Prism software package (GraphPad Prism version 3.0cx for Macintosh, GraphPad Software, San Diego Calif., USA).

SMILES strings stand for the structures.

ATR kinase (full-length ATR), sequence (Q13535 whole entry): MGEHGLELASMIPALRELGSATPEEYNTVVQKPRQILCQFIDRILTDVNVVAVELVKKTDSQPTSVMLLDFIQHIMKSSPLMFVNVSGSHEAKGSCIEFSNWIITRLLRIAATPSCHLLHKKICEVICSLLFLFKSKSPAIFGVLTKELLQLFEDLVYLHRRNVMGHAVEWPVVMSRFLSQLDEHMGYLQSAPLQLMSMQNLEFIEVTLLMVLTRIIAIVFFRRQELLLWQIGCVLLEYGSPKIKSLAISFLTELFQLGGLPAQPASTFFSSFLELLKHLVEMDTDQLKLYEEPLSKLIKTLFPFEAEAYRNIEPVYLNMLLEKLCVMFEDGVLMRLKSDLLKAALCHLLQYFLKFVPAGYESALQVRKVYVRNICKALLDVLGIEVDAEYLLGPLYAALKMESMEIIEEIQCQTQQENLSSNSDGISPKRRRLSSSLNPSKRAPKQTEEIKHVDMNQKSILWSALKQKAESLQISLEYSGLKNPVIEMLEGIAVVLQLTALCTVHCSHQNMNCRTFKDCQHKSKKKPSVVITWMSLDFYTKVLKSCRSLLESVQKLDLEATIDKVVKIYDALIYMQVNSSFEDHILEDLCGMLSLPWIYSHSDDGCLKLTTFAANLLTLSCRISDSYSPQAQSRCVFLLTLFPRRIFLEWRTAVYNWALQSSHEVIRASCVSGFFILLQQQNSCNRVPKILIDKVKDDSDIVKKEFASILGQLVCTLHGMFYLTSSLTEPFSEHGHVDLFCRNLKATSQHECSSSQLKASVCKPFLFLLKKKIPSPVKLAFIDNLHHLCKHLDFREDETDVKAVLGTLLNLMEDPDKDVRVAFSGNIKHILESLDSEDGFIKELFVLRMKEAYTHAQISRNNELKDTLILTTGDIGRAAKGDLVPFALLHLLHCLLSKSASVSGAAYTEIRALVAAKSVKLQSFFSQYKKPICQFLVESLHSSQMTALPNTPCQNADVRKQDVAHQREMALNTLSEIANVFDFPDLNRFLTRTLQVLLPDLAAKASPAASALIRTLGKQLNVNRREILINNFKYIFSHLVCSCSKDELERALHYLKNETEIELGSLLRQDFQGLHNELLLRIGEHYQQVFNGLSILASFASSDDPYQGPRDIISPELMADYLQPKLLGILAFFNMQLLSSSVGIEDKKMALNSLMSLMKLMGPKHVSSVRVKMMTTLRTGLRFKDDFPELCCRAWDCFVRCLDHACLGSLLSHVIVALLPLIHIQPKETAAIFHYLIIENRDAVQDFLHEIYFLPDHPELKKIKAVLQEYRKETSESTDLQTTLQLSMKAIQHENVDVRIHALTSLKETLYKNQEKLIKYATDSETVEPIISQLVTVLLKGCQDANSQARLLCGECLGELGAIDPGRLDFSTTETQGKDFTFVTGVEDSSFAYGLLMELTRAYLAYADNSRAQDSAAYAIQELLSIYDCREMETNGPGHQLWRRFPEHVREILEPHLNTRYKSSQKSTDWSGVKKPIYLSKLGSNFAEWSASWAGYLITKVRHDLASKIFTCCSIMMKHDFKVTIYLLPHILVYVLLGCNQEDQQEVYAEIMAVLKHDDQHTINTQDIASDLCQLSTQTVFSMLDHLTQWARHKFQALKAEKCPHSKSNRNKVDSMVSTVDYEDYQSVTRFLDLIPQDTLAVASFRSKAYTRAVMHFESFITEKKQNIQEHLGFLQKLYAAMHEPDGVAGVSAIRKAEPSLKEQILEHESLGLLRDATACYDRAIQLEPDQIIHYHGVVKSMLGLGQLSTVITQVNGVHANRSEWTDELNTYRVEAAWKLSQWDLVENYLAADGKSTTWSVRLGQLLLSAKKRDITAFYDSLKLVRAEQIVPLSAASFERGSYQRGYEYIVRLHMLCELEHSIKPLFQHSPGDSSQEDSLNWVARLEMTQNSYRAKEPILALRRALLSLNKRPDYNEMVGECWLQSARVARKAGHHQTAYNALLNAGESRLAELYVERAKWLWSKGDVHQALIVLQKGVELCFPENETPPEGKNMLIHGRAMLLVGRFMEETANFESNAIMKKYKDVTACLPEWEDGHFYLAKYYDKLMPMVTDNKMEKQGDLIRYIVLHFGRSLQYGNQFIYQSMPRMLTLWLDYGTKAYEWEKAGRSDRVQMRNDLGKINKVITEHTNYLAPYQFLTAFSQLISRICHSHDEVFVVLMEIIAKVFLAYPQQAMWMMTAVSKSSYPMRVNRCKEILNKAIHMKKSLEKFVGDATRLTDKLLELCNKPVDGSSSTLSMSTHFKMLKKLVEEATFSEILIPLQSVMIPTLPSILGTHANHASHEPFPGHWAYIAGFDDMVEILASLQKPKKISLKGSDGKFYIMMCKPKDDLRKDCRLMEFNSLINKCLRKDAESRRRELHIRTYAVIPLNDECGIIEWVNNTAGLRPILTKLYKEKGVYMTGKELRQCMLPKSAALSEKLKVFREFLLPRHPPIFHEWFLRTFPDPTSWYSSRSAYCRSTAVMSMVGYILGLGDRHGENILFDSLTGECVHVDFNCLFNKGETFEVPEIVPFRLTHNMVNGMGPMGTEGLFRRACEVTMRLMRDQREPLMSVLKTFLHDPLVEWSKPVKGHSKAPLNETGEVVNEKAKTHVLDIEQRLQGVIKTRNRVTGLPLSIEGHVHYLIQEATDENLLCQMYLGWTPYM

Consider `CN1CCN(C(=O)C2CCN(c3ccncc3NC(=O)c3c(N)nn4cc(F)cnc34)CC2)CC1` [I-G-1, 2-amino-6-fluoro-N-(4-(4-(4-methylpiperazine-1-carbonyl)piperidin-1-yl)pyridin-3-yl)pyrazolo[1,5-a]pyrimidine-3-carboxamide], for which the Ki lay within 10 to 1000 nM.

On to `Nc1nn2cc(F)cnc2c1C(=O)Nc1cncc(F)c1N1CCN(C(=O)C2CN3CCC2CC3)CC1` (stereo not shown) [I-N-130, 2-amino-6-fluoro-N-(5-fluoro-4-(4-(quinuclidine-3-carbonyl)piperazin-1-yl)pyridin-3-yl)pyrazolo[1,5-a]pyrimidine-3-carboxamide], for which the Ki was 10 to 1000 nM.

Regarding `Nc1nn2cc(F)cnc2c1C(=O)Nc1cnccc1N1CCC(C(=O)N2CCC2)CC1` [I-G-77, 2-amino-N-(4-(4-(azetidine-1-carbonyl)piperidin-1-yl)pyridin-3-yl)-6-fluoropyrazolo[1,5-a]pyrimidine-3-carboxamide], the Ki lay in the range of 10 to 1000 nM.

As to `CN1CCCC(Oc2ccncc2NC(=O)c2c(N)nn3cc(Cl)cnc23)C1` (stereo not shown) [I-O-51, 2-amino-6-chloro-N-(4-((1-methylpiperidin-3-yl)oxy)pyridin-3-yl)pyrazolo[1,5-a]pyrimidine-3-carboxamide], the Ki lay within 10 to 1000 nM.

Turning to `Nc1nn2cc(F)cnc2c1C(=O)Nc1cncc(F)c1N1CCN(C(=O)C2CNCCO2)CC1` (stereo not shown) [I-N-172, 2-amino-6-fluoro-N-(5-fluoro-4-(4-(morpholine-2-carbonyl)piperazin-1-yl)pyridin-3-yl)pyrazolo[1,5-a]pyrimidine-3-carboxamide], the Ki was in the range of 10 to 1000 nM.

For the molecule `Nc1nn2cc(Cl)cnc2c1C(=O)Nc1cnccc1N1CCN(CC(F)(F)F)CC1` [I-N-67, 2-amino-6-chloro-N-(4-(4-(2,2,2-trifluoroethyl)piperazin-1-yl)pyridin-3-yl)pyrazolo[1,5-a]pyrimidine-3-carboxamide], the Ki is 10 to 1000 nM.

Consider `Nc1nn2cc(F)cnc2c1C(=O)Nc1cncc(F)c1N1CCC(C(=O)N2CCN(C3CCC3)CC2)CC1` [I-G-35, 2-amino-N-(4-(4-(4-cyclobutylpiperazine-1-carbonyl)piperidin-1-yl)-5-fluoropyridin-3-yl)-6-fluoropyrazolo[1,5-a]pyrimidine-3-carboxamide], for which the Ki is 10 to 1000 nM.

As for `N#CCc1cnc2c(C(=O)Nc3cnccc3N3CCCCCC3)c(N)nn2c1` [I-N-79, 2-amino-N-(4-(azepan-1-yl)pyridin-3-yl)-6-(cyanomethyl)pyrazolo[1,5-a]pyrimidine-3-carboxamide], the Ki lay within 10 to 1000 nM.

For `Nc1nn2cc(F)cnc2c1C(=O)Nc1cncc(F)c1N1CCN(C2CCOCC2)CC1` [I-N-121, 2-amino-6-fluoro-N-(5-fluoro-4-(4-(tetrahydro-2H-pyran-4-yl)piperazin-1-yl)pyridin-3-yl)pyrazolo[1,5-a]pyrimidine-3-carboxamide], the Ki was in the range of 10 to 1000 nM.

For `CN(C)CCN1CCN(c2ccncc2NC(=O)c2c(N)nn3cc(Cl)cnc23)CC1` [I-N-49, 2-amino-6-chloro-N-(4-(4-(2-(dimethylamino)ethyl)piperazin-1-yl)pyridin-3-yl)pyrazolo[1,5-a]pyrimidine-3-carboxamide], the Ki was 10 to 1000 nM.

Turning to `Nc1nn2cc(F)cnc2c1C(=O)Nc1cnccc1OC1CCN(C2COC2)CC1` [I-O-11, 2-amino-6-fluoro-N-(4-((1-(oxetan-3-yl)piperidin-4-yl)oxy)pyridin-3-yl)pyrazolo[1,5-a]pyrimidine-3-carboxamide], the Ki is 10 to 1000 nM.

Take `Nc1nn2cc(F)cnc2c1C(=O)Nc1cncc(F)c1N1CCN(S(=O)(=O)C2CCOCC2)CC1` [I-N-158, 2-amino-6-fluoro-N-(5-fluoro-4-(4-((tetrahydro-2H-pyran-4-yl)sulfonyl)piperazin-1-yl)pyridin-3-yl)pyrazolo[1,5-a]pyrimidine-3-carboxamide]: the Ki lay within 10 to 1000 nM.

Consider `Nc1nn2cc(F)cnc2c1C(=O)Nc1cnccc1N1CCN2C(=O)CC[C@@H]2C1` [I-N-258, (R)-2-amino-6-fluoro-N-(4-(6-oxohexahydropyrrolo[1,2-a]pyrazin-2(1H)-yl)pyridin-3-yl)pyrazolo[1,5-a]pyrimidine-3-carboxamide], for which the Ki lay within 10 to 1000 nM.

The values above are taken from patent publication US10392391B2 (Vertex Pharmaceuticals Incorporated, priority 2012, dated 2019).
